Laboratory results from patent US20210120789A1, “Genetically Modified Non-Human Animals” (Shanghai RAAS Blood Products Co., Ltd., priority 2019, published 2021).

Columns and labels:
[1] = tested on: human protein C knockin and factor IX deficient double mutant mice (hproC+/+, F9−/−); assay: Hemophilia B model, tail transection bleeding time; format: in vivo, mouse; conditions: distal tail transected at 4 mm, injected into an orbital vein 5 min before transection, vs no factor injected
Procedure: (§1) For hemophilia A model, 8 to 10-week-old mice including WT mice, factor VIII deficient mice (F8−/−) and human protein C knockin and factor VIII deficient double mutant mice (hproC+/+, F8−/−) anesthetized using 80 mg/kg sodium pentobarbital i.p. were placed on their abdomen with the tail immersed in 37° C. saline. The distal tail of mice was transected at 4 mm (severe injury), and the bleeding was arterial and venous. Human factor VIII was injected into an orbital vein 5 min before the tail was transected. Controls were also performed in which no Human Factor VIII was injected. For hemophilia B model, the same procedures were conducted except that factor IX deficient mice (F9−/−), human protein C knockin and factor IX deficient double mutant mice (hproC+/+, F9−/−), and human factor IX were used. Bleeding time was measured following the tail-tip transection and immediate immersion of the tail in 10 ml of saline at 37° C. Bleeding time was set at cessation of blood leakage for at least 1 min. After 15 min, the tail was removed from the saline and the bleeding time measure was ended.

[2] = tested on: factor IX deficient mice (F9−/−); assay: Hemophilia B model, tail transection bleeding time; format: in vivo, mouse; conditions: distal tail transected at 4 mm, injected into an orbital vein 5 min before transection, vs no factor injected
Procedure: as §1

human factor IX: human blood clotting factor IX, injected before tail transection in the hemophilia B model
bleeding time [1]: correct the prolonged bleeding time
bleeding time [2]: correct the prolonged bleeding time
